Reference: patent publication US8227245B2, “Multipotent stem cells from peripheral tissues and uses thereof” (McGill University, priority 2000, dated 2012)

Legend:
[1] = tested on: skin-derived stem cells harvested from human foreskin; experiment: Culture of human foreskin skin-derived stem cells in presence and absence of LIF; type: cell-based; settings: proliferating non-adherent cultures with EGF and FGF2
From the text: In contrast to human central nervous system derived stem cells, the survival and proliferation of human skin-derived stem cells is not dependent on LIF.
We cultured the cell suspension, as previously described, in non-adherent vessels in the presence of EGF and FGF2. […] The clusters are morphologically indistinguishable from skin-derived stem cells derived from rodent tissue. Skin-derived clusters are loosely compacted, and the cells can be readily dissociated manually without the use of proteases. Such characteristics appear to distinguish skin-derived clusters from CNS-derived neurospheres. […] Furthermore, we have currently passaged and maintained foreskin derived stem cells as proliferating cultures for greater than three months.

[2] = tested on: skin-derived MSCs; experiment: Endodermal marker expression of skin-derived MSCs by RT-PCR after plating with nicotinamide; type: cell-based; settings: cells dissociated and plated in media supplemented with nicotinamide
Protocol: Skin-derived MSCs were cultured under standard proliferation conditions in the presence or absence of B-27 supplement. Differentiation was induced by plating cells in the presence of nicotinamide, and the resulting differentiated cells were analyzed by quantitative RT-PCR. […] Although cells proliferated in either the presence or the absence of B27 supplement can be induced to express endodermal markers, cells proliferated in B27 appear to express such markers to a higher degree.
Our recent discovery that MSCs maintain the potential to produce both neural and non-neural cell types has been accompanied by the discovery that non-neural stem cells such as bone marrow-derived stem cells (i.e., stromal cells or mesenchymal stem cells) also have the potential to produce a wide variety of neural and non-neural stem cells (Ferrari et al., Science 279:1528-1530, 1998; Gussoni et al., Nature 401:390-394, 1999; Peterson et al., Science 284:1168-1170, 1999; Pereira et al., Proc. Natl. Acad. Sci. USA 92:4857-4861, 1995; Prockop, Science 276:71-74, 1997; Kessler and Byrne, Annu. Rev. Physiol. 61:219-242, 1999; Pittenger et al., Science 284:143-147). […] After several days of co-culture the skin-derived stem cells were analyzed based on both morphology and on protein expression. […]

[3] = tested on: skin-derived MSCs; experiment: Pharmacological agents added to proliferating skin-derived MSCs (morphology, survival); type: cell-based, mouse; settings: plated three days in proliferation medium containing FGF, medium supplemented with agent
From the text: FIG. 10 is a series of photographs showing the effect of various pharmacological agents on mouse skin-derived MSCs.
We tested the ability of pharmacological agents to alter this phenotype.

[4] = tested on: skin derived MSCs; experiment: Neuronal differentiation of skin-derived MSCs plated in 5% serum with added agent, anti-neurofilament immunocytochemistry; type: cell-based; settings: 5% serum plus agent, compared with serum alone
Protocol: Cells were dissociated and plated in the presence of either 5% FBS, 5% FBS+retinoic acid (RA), or 5% FBS+BMP7. Cells were analyzed immunocytochemically for expression of neurofilament M (NFM).
Skin derived MSCs were obtained and cultured as described in detail above. To induce differentiation, cells were plated in the presence of 5% serum supplemented with either retinoic acid or BMP-7. Neuronal differentiation was analyzed using a polyclonal anti-neurofilament antibody.

Molecule: LIF: cytokine added to culture medium (R&D Systems)
- proliferation, differentiation or survival characteristics in presence and absence of LIF [1]: no significant differences

Molecule: NC(=O)c1cccnc1 [nicotinamide]
- expression of endodermal markers (GATA-4, HNF3α, Isl1, AFP, HNF3β, Ngn3, Pdx-1, Insulin) [2]: express markers of endodermal differentiation

Molecule: COc1cccc(-c2cc(=O)c3ccccc3o2)c1N [PD098059]
- effect on phenotype of proliferating skin-derived MSCs [3]: caused proliferating cells to flatten and differentiate

Molecule: C[S+]([O-])c1ccc(-c2nc(-c3ccncc3)c(-c3ccc(F)cc3)[nH]2)cc1 (centres unmarked) [SB203580]
- effect on phenotype of proliferating skin-derived MSCs [3]: no observed effect

B1: BMP-7: therapeutic protein (growth factor) added to 5% serum to induce differentiation (protein, UniProt P18075 293-431, looked up)
Bone morphogenetic protein 7: STGSKQRSQNRSKTPKNQEALRMANVAENSSSDQRQACKKHELYVSFRDLGWQDWIIAPEGYAAYYCEGECAFPLNSYMNATNHAIVQTLVHFINPETVPKPCCAPTQLNAISVLYFDDSSNVILKKYRNMVVRACGCH
- number and complexity of neurofilament positive cells [4]: enhances the number and complexity of neurofilament positive cells
